Here are results for one compound from patent US11981883B2, “Composition containing 1,2-dichloro-3,3,3-trifluoropropene” (DAIKIN INDUSTRIES, LTD., priority 2018, dated 2024).

The structures appear in SMILES notation.

For the data set, the system named is rats. Briefly: 4-hour single-inhalation exposure test (OECD Guideline No. 436). Type of data set: in vivo. On the procedure: A 4-hour single-inhalation exposure test was performed on rats by using a mist of HCFO-1223xd according to the OECD Guideline No. 436.

As to `FC(F)(F)C(Cl)=CCl` [HCFO-1223xd, 1,2-dichloro-3,3,3-trifluoropropene], the “death of rats on inhalation exposure” value (4-hour single inhalation, mist at a concentration of 5 mg/L) was “No death of the rats was observed”. Moreover, the acute toxicity result (4-hour single-inhalation exposure, OECD Guideline No. 436) is reported as “low acute toxicity”.
